{"source": "patent US9102619B2", "about": "“Derivatives of 1-phenyl-2-pyridinyl alkyl alcohols as phosphodiesterase inhibitors” (Chiesi Farmaceutici S.p.A., priority 2007, dated 2015)", "key": {"PDE4 enzyme": {"tested_on": "PDE4 enzyme", "test": "In vitro PDE4 inhibitory activity in the cell free assay (cAMP disappearance, U937 cell supernatant)", "assay_type": "biochemical, human", "settings": "1.6 μM cAMP, 30° C. 30 minutes", "method": "The U937 human monocytic cell line was used as source of PDE4 enzyme. Cells were cultured, harvested and supernatant fraction prepared essentially as described in Torphy, T. J. et al., J. Pharmacol. Exp. Ther., 1992; 263:1195-1205. PDE4 activity was determined in cells supernatants by assaying cAMP disappearance from the incubation mixtures. 50 μl of cell supernatant were incubated at 30° C. for 30 minutes in a final volume of 200 μl in the presence of 1.6 μM cAMP with or without the test compound (50 μl).\nThe concentration of the test compounds ranged between 10^−12 M and 10^−6 M. Reactions were stopped by heat inactivation (2.5 minutes at 100° C.) and residual cAMP was measured using an electrochemiluminescence (ECL)-based immunoassay.\nPercentage of inhibition of PDE4 activity was calculated, assuming cAMP disappearance in the absence of inhibitors as 100% and cAMP disappearance in heat inactivated samples as 0%."}, "[1]": {"tested_on": "LPS-induced TNF-α release in peripheral blood mononuclear cells (PBMCs)", "test": "PDE4 inhibitory activity in the PBMCs assay (LPS-induced TNF-α release)", "assay_type": "cell-based", "settings": "human PBMCs, LPS 3 ng/ml, 18 hours, TNF-α by ELISA", "method": "The assay, which is based on the known inhibitory activity exerted by PDE4 inhibitors on the lipopolysaccharides (LPS)-induced tumour necrosis factor-alpha (TNF-α release in peripheral blood mononuclear cells (PBMCs), was performed according to a method previously described (Hatzelmann A. et al., J. Pharmacol. Exp. Ther., 2001; 297:267-279; Draheim R. et al., J. Pharmacol. Exp. Ther., 2004; 308:555-563. Cryopreserved human PBMCs, (100 μl/well) were incubated in 96-well plates (10^5 cells/well), for 30 min, in the presence or absence (50 microl) of the test compounds whose concentrations ranged from 10^−12 M to 10^−6M. Subsequently, LPS (3 ng/ml) was added. After 18 hours of incubation at 37° C. in a humidified incubator under an atmosphere of 95% air and 5% CO2, culture medium was collected and TNF-α measured by ELISA.\nThe effects of the tested compounds were calculated as percentage of inhibition of TNF-α release, assuming LPS-induced TNF-α production in the absence of inhibitor compound as 100% and basal TNF-α production of PBMCs in the absence of LPS as 0%."}, "LPDE4 [2]": {"tested_on": "LPDE4", "test": "Inhibition of low affinity LPDE4 (cAMP disappearance)", "assay_type": "biochemical", "settings": "ratio of IC50 values", "excerpt": "(§1) Advantageously the compounds of the invention are characterized by selectivity toward LPDE4 higher than that toward HPDE4 as obtained by the determination of their IC50. In the case of LPDE4, the IC50 is the molar concentration of the test compound producing 50% inhibition of cAMP disappearance, assessed as described in Cortijo, J. et al., Br. J. Pharmacol., 1993, 108: 562-568, while in the case of HPDE4, the IC50 is the molar concentration of the test compound producing 50% inhibition of the binding of [H^3] rolipram, assessed as described in Duplantier, A. J. et al., J. Med. Chem., 1996; 39: 120-125. Preferably the HPDE4/LPDE4 IC50 ratio for the compounds of the invention is higher than 5, preferably higher than 10, more preferably higher than 20 and even more preferably higher than 100.\n(§2) The affinity toward LPDE4 and HPDE4 was assessed as previously described respectively in Cortijo J. et al., Br. J. Pharmacol., 1993, 108: 562-568 and Duplantier A. J. et al., J. Med. Chem., 1996; 39: 120-125. In the case of LPDE4, the IC50 is the molar concentration of the test compound producing 50% inhibition of cAMP disappearance, while in the case of HPDE4, the IC50 is the molar concentration of the test compound producing 50% inhibition of the binding of [H^3] rolipram."}, "LPDE4 [3]": {"tested_on": "T1, LPDE4", "T1 construct": "LPDE4 IC50", "test": "Inhibition of low affinity LPDE4 (cAMP disappearance)", "assay_type": "biochemical", "settings": "50% inhibition of cAMP disappearance", "excerpt": "as §1, §2"}, "HPDE4": {"molecular_target": "HPDE4", "test": "Competition for high affinity HPDE4 ([H^3] rolipram binding)", "settings": "50% inhibition of the binding of [H^3] rolipram", "excerpt": "as §1, §2"}}, "data": [{"smiles": "O=C(OC(Cc1c(Cl)cncc1Cl)c1ccc(OC(F)F)c(OCC2CC2)c1)c1ccc(OC(F)F)c(OCC2CC2)c1", "note": "(stereo not drawn) [Compound 11, 3-cyclopropylmethoxy-4-difluoromethoxy-benzoic acid 1-(3-cyclopropylmethoxy-4-difluoromethoxy-phenyl)-2-(3,5-dichloro-pyridin-4-yl)-ethyl ester]", "values": [{"measurement": "IC50", "setting": "PDE4 enzyme", "result": 12, "unit": "nM"}, {"measurement": "IC50", "setting": "[1]; PBMC", "result": 51, "unit": "nM"}, {"measurement": "HPDE4/LPDE4", "setting": "LPDE4 [2]", "result": 1319}, {"measurement": "IC50", "setting": "LPDE4 [3]", "result": 0.116, "unit": "nM"}, {"measurement": "IC50", "setting": "HPDE4", "result": 153, "unit": "nM"}]}, {"smiles": "COc1ccc(C(O)Cc2c(Cl)c[n+]([O-])cc2Cl)cc1OC1CCCC1", "note": "(stereo not drawn) [Compound 20]", "values": [{"measurement": "HPDE4/LPDE4", "setting": "LPDE4 [2]", "result": 394}, {"measurement": "IC50", "setting": "LPDE4 [3]", "result": 0.759, "unit": "nM"}, {"measurement": "IC50", "setting": "HPDE4", "result": 299, "unit": "nM"}]}, {"smiles": "COc1ccc(C(Cc2c(Cl)cncc2Cl)OC(=O)C(C)c2ccc(CC(C)C)cc2)cc1OC1CCCC1", "note": "(stereo not drawn) [Compound 9, 2-(4-isobutyl-phenyl)-propionic acid 1-(3-cyclopentyloxy-4-methoxy-phenyl)-2-(3,5-dichloro-pyridin-4-yl)-ethyl ester]", "values": [{"measurement": "IC50", "setting": "PDE4 enzyme", "result": 22, "unit": "nM"}, {"measurement": "IC50", "setting": "[1]; PBMC", "result": 85, "unit": "nM"}, {"measurement": "HPDE4/LPDE4", "setting": "LPDE4 [2]", "result": 541}, {"measurement": "IC50", "setting": "LPDE4 [3]", "result": 0.738, "unit": "nM"}, {"measurement": "IC50", "setting": "HPDE4", "result": 399, "unit": "nM"}]}, {"smiles": "COc1ccc(C(Cc2c(Cl)cncc2Cl)OC(=O)[C@@H](C)c2ccc(CC(C)C)cc2)cc1OC", "note": "(stereo partly drawn) [Compound 1, (S)-2-(4-isobutyl-phenyl)-propionic acid 2-(3,5-dichloro-pyridin-4-yl)-1-(3,4-dimethoxy-phenyl)-ethyl ester]", "values": [{"measurement": "IC50", "setting": "PDE4 enzyme", "result": 118, "unit": "nM"}, {"measurement": "IC50", "setting": "[1]; PBMC", "result": 69, "unit": "nM"}]}, {"smiles": "COc1ccc(C(Cc2c(Cl)c[n+]([O-])cc2Cl)OC(=O)C(C)c2ccc(CC(C)C)cc2)cc1OC", "note": "[Compound 13, (S)-2-(4-isobutyl-phenyl)-propionic acid 2-(3,5-dichloro-1-oxy-pyridin-4-yl)-1-(3,4-dimethoxy-phenyl)-ethyl ester]", "values": [{"measurement": "IC50", "setting": "[1]; PBMC", "result": 13, "unit": "nM"}]}, {"smiles": "COc1ccc(C(Cc2c(Cl)cncc2Cl)OC(=O)C(C)c2ccc(N)cc2)cc1OC", "note": "(stereo not drawn) [Compound 16, 2-(4-amino-phenyl)-propionic acid 2-(3,5-dichloro-pyridin-4-yl)-1-(3,4-dimethoxy-phenyl)-ethyl ester]", "values": [{"measurement": "IC50", "setting": "PDE4 enzyme", "result": 6.3, "unit": "nM"}, {"measurement": "IC50", "setting": "[1]; PBMC", "result": 36, "unit": "nM"}]}, {"smiles": "COc1ccc(C(Cc2c(Cl)cncc2Cl)OC(=O)Cc2ccccc2)cc1OC", "note": "(stereo not drawn) [Compound 2, phenyl-acetic acid 2-(3,5-dichloro-pyridin-4-yl)-1-(3,4-dimethoxy-phenyl)-ethyl ester]", "values": [{"measurement": "IC50", "setting": "[1]; PBMC", "result": 89, "unit": "nM"}]}, {"smiles": "N[C@@H](C(=O)OC(Cc1c(Cl)cncc1Cl)c1ccc(OC(F)F)c(OCC2CC2)c1)c1ccccc1", "note": "(stereo partly drawn) [Compound 8, (R)-amino-phenyl-acetic acid 1-(3-cyclopropylmethoxy-4-difluoromethoxy-phenyl)-2-(3,5-dichloro-pyridin-4-yl)-ethyl ester]", "values": [{"measurement": "IC50", "setting": "PDE4 enzyme", "result": 22, "unit": "nM"}]}, {"smiles": "CC(C)Cc1ccc(C(C)C(=O)OC(Cc2c(Cl)cncc2Cl)c2ccc(OC(F)F)c(OCC3CC3)c2)cc1", "note": "(stereo not drawn) [Compound 12, 2-(4-isobutyl-phenyl)-propionic acid 1-(3-cyclopropylmethoxy-4-difluoromethoxy-phenyl)-2-(3,5-dichloro-pyridin-4-yl)-ethyl ester]", "values": [{"measurement": "IC50", "setting": "PDE4 enzyme", "result": 12, "unit": "nM"}, {"measurement": "IC50", "setting": "[1]; PBMC", "result": 456, "unit": "nM"}]}, {"smiles": "COc1ccc(C(Cc2c(Cl)cncc2Cl)OC(=O)C2(c3ccccc3)CC2)cc1OC", "note": "(stereo not drawn) [Compound 3, 1-phenyl-cyclopropanecarboxylic acid 2-(3,5-dichloro-pyridin-4-yl)-1-(3,4-dimethoxy-phenyl)-ethyl ester]", "values": [{"measurement": "IC50", "setting": "PDE4 enzyme", "result": 118, "unit": "nM"}, {"measurement": "IC50", "setting": "[1]; PBMC", "result": 52, "unit": "nM"}]}, {"smiles": "N[C@H](C(=O)OC(Cc1c(Cl)cncc1Cl)c1ccc(OC(F)F)c(OCC2CC2)c1)c1ccccc1", "note": "(stereo partly drawn) [Compound 7, (S)-amino-phenyl-acetic acid 1-(3-cyclopropylmethoxy-4-difluoromethoxy-phenyl)-2-(3,5-dichloro-pyridin-4-yl)-ethyl ester]", "values": [{"measurement": "IC50", "setting": "PDE4 enzyme", "result": 7, "unit": "nM"}, {"measurement": "IC50", "setting": "[1]; PBMC", "result": 99, "unit": "nM"}]}, {"smiles": "O=C(OC(Cc1c(Cl)c[n+]([O-])cc1Cl)c1ccc(OC(F)F)c(OCC2CC2)c1)c1ccc(OC(F)F)c(OCC2CC2)c1", "note": "(stereo not drawn) [Compound 14, 3-cyclopropylmethoxy-4-difluoromethoxy-benzoic acid 1-(3-cyclopropylmethoxy-4-difluoromethoxy-phenyl)-2-(3,5-dichloro-1-oxy-pyridin-4-yl)-ethyl ester]", "values": [{"measurement": "IC50", "setting": "[1]; PBMC", "result": 2, "unit": "nM"}]}, {"smiles": "CC(C)(C)OC(=O)N[C@@H](C(=O)OC(Cc1c(Cl)cncc1Cl)c1ccc(OC(F)F)c(OCC2CC2)c1)c1ccccc1", "note": "(stereo partly drawn) [Compound 6, (R)-tert-butoxycarbonylamino-phenyl-acetic acid 1-(3-cyclopropylmethoxy-4-difluoromethoxy-phenyl)-2-(3,5-dichloro-pyridin-4-yl)-ethyl ester]", "values": [{"measurement": "IC50", "setting": "PDE4 enzyme", "result": 9, "unit": "nM"}, {"measurement": "IC50", "setting": "[1]; PBMC", "result": 95, "unit": "nM"}]}, {"smiles": "CC(C)Cc1ccc(C(C)C(=O)OC(Cc2c(Cl)c[n+]([O-])cc2Cl)c2ccc(OC(F)F)c(OCC3CC3)c2)cc1", "note": "(stereo not drawn) [Compound 15, 2-(4-isobutyl-phenyl)-propionic acid 1-(3-cyclopropylmethoxy-4-difluoromethoxy-phenyl)-2-(3,5-dichloro-1-oxy-pyridin-4-yl)-ethyl ester]", "values": [{"measurement": "IC50", "setting": "PDE4 enzyme", "result": 8.6, "unit": "nM"}, {"measurement": "IC50", "setting": "[1]", "result": 15, "unit": "nM"}, {"measurement": "HPDE4/LPDE4", "setting": "LPDE4 [2]", "result": 273}, {"measurement": "IC50", "setting": "LPDE4 [3]", "result": 0.169, "unit": "nM"}, {"measurement": "IC50", "setting": "HPDE4", "result": 2.17, "unit": "nM"}]}, {"smiles": "COc1ccc(C(=O)OC(Cc2c(Cl)cncc2Cl)c2ccc(OC)c(OC)c2)cc1OC", "note": "(stereo not drawn) [Compound 4, 3,4-dimethoxy-benzoic acid 2-(3,5-dichloro-pyridin-4-yl)-1-(3,4-dimethoxy-phenyl)-ethyl ester]", "values": [{"measurement": "IC50", "setting": "PDE4 enzyme", "result": 3.4, "unit": "nM"}, {"measurement": "IC50", "setting": "[1]; PBMC", "result": 34.2, "unit": "nM"}]}]}
